Source: ChEMBL document CHEMBL1150064, “Scoparic acid A, a beta-glucuronidase inhibitor from Scoparia dulcis” (J Nat Prod, 1992)

T1: Beta-glucuronidase (Bos taurus, UniProt A3KMY8)
T1 sequence (A3KMY8 whole entry): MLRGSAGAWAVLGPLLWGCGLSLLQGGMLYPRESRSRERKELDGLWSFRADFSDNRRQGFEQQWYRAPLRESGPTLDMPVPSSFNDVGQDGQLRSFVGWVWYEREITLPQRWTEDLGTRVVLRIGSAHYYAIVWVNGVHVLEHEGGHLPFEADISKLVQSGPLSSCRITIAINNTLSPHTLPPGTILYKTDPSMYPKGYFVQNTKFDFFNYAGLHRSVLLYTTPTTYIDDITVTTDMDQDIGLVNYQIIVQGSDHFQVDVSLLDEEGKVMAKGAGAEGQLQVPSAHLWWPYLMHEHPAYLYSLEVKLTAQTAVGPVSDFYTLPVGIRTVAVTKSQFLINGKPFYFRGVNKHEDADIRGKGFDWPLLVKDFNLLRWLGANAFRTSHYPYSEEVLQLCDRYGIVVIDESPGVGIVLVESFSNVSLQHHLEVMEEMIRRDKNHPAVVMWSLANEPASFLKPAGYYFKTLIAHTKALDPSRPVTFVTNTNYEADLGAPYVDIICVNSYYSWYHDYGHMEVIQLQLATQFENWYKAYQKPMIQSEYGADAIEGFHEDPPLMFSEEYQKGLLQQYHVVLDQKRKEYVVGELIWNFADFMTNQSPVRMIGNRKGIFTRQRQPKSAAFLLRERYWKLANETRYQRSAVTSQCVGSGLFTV

T2: Beta-glucuronidase (Bos taurus) (UniProt A3KMY8)
T2 sequence (whole entry): T1 sequence (A3KMY8 whole entry)

B1: Beta-glucuronidase (Bos taurus), A3KMY8 (protein)
chain: T1 sequence (A3KMY8 whole entry)

How the values were obtained:
[1] = target: T1, Beta-glucuronidase; assay: Inhibition of bovine beta-glucuronidase
[2] = target: T2, Beta-glucuronidase (Bos taurus); assay: Inhibition of bovine beta-glucuroniase assessed as decrease in enzyme inhibition in presence of BSA; settings: concentration not given here
[3] = substrate: C=C1C[C@@H](OC(=O)c2ccccc2)[C@@H]2[C@](C)(CCC[C@@]2(C)C(=O)O)[C@@H]1CC/C(C)=C/CO; assay: Activity at bovine beta-glucuroniase by Lineweaver-Burke plot; settings: Bos taurus

Row | Molecule | IC50 [1] | inhibition [2] | Km [3]
1 | C=C1C[C@@H](OC(=O)c2ccccc2)[C@@H]2[C@](C)(CCC[C@@]2(C)C(=O)O)[C@@H]1CC/C(C)=C/CO [SCOPARIC ACID A] | 6.8 µM | 5% | 
2 | C=C1C[C@@H](OC(=O)c2ccccc2)[C@@H]2[C@](C)(CCC[C@@]2(C)C(=O)O)[C@@H]1CCC(C)=O [SCOPARIC ACID B] | > 100 µM |  | 
3 | C=C(C=O)CC[C@@H]1C(=C)C[C@@H](OC(=O)c2ccccc2)[C@@H]2[C@]1(C)CCC[C@@]2(C)C(=O)O [SCOPARIC ACID C] | 10 µM |  | 
4 | B1 |  |  | 14.3 mM
